Experimental data: patent publication US20030059421A1, “DNA encoding the baboon and cynomolgus macaque prostoglandin E2 receptor EP4 subtype” (Pfizer Inc., priority 2001, published 2003)

What was measured:
[1] = biological target: T1, baboon prostaglandin receptor EP4 (baEP4) (Papio cynocephalus, UniProt Q7JGJ7); assay: cAMP accumulation (SPA) in CHO cells transiently transfected with baboon EP4; type: cell-based; conditions: 12 minutes treatment, IBMX present
Description: (§1) FIG. 6 provides characterization of secondary signaling in CHO cells expressing baboon prostaglandin receptor EP4. An SPA assay was performed on CHO cells transiently transfected with baboon EP4 following treatment for 12 minutes with either (▪) PGE2 or the EP4 specific ligand (●) EP4SL. Error bars represent one standard deviation.
(§2) Secondary signaling in CHO cells expressing baEP4 or cynEP4 was measured by cAMP accumulation. CHO cells transiently transfected with baEP4 or cynEP4 were treated for 12 minutes with various concentrations of PGE2 in the presence of 2 mM IBMX. Accumulation of intracellular cAMP was measured at the end of the treatment period by use of a commercially available scintillation proximity assay (SPA) kit (Amersham, Arlington Heights, Ill.).
(§3) The day prior to transfection, CHO—K1 cells were plated in 100 mm dishes (Corning, Corning, N.Y.) at 6×10^4 cells/cm^2 in DMEM/F12 (Life Technologies) supplemented with 10% fetal calf serum (FCS; Gemini Bio-Products, Calabasas, Calif.). […]
(§4) To measure stimulation of cAMP production, CHO cells transiently transfected with the baboon EP4 or cynomolgus macaque EP4 receptor were plated at 20,000 cells/well in poly-D lysine coated 96-well tissue-culture plates (Becton-Dickinson, Franklin Lakes, N.J.) and allowed to grow for 72 hours. […] Assay plates were then counted in a Wallac Trilux counter (Perkin Elmer, Boston, Mass.).

[2] = biological target: T1, baboon prostaglandin receptor EP4 (baEP4); assay: Competition binding with 3H-PGE2 on CHO-K1 cells transiently transfected with baboon EP4; conditions: for IC50: baEP4 transfected CHO-K1 whole cells, 3 nM 3H-PGE2, 1 hr on ice, read-out: IC50, displacement of 3H-PGE2 binding
Description: Following washing and solubilization of the cells, specific binding was determined by scintillation counting.
(§5) To test the binding and signaling characteristics of this putative ba/cynEP4 receptor, DNA fragments containing the entire open reading frames of each baboon and cynomolgus macaque were separately transiently transfected into CHO—K1 cells.
The day prior to transfection, CHO—K1 cells were plated in 100 mm dishes (Corning, Corning, N.Y.) at 6×10^4 cells/cm^2 in DMEM/F12 (Life Technologies) supplemented with 10% fetal calf serum (FCS; Gemini Bio-Products, Calabasas, Calif.). The next day, each plate of cells was transfected with 15 g of either baboon or cynomolgus macaque EP4-pCR3.1-Uni plasmid DNA using Lipofectamine 2000 reagent (Life Technologies) according to the manufacturer's protocol. Briefly, 45 l of Lipofectamine 2000 reagent was diluted into 1.5 ml of D-MEM/F12 without serum and incubated at room temperature for 5 minutes. During this time, 15 g of either baboon or cynomolgus macaque EP4-pCR3.1-Uni plasmid DNA was diluted into 0.5 ml of D-MEM/F12 without serum. The diluted Lipofectamine 2000 reagent and the DNA were then mixed and incubated an additional 20 minutes at room temperature. 8 ml D-MEM/F12 without serum was then added to each reaction and carefully added to a plate of CHO cell previously rinsed with serum free D-MEM/F12. These cells were then incubated at 37° C. with 5% CO2 for 6 hr at which time 1 ml FCS was added per plate and the incubation continued at 37° C. with 5% CO2 overnight. The following day, the cells were split to either 24-well or 96-well dishes for use in ligand binding and/or secondary signaling analyses.
CHO cells transiently transfected with the baboon EP4 or cynomolgus macaque EP4 receptor were plated at 60,000 cells/well in 24-well tissue-culture dishes (Corning, Corning, N.Y.) and allowed to grow for 48 hours. […] Unbound radioligand was removed by extensive washing, the cells were solubilized with 1% SDS, and the bound ^3H-PGE2 quantitated by scintillation counting.

[3] = biological target: T2, cynomolgus macaque prostaglandin receptor EP4 (cynEP4) (Macaca fascicularis, UniProt Q95J39); assay: cAMP accumulation (SPA) in CHO cells transiently transfected with cynomolgus macaque EP4; type: cell-based; conditions: 12 minutes treatment, IBMX present
Description: as §1, with “7” for “6”, “cynomolgus macaque” for “baboon”, “cynEP4” for “baboon EP4”
as §2, §3, §4

[4] = biological target: T2, cynomolgus macaque prostaglandin receptor EP4 (cynEP4); assay: Competition binding with 3H-PGE2 on CHO-K1 cells transiently transfected with cynomolgus macaque EP4; conditions: for IC50: cynEP4 transfected CHO-K1 whole cells, 3 nM 3H-PGE2, 1 hr on ice, read-out: IC50, displacement of 3H-PGE2 binding
Description: Each indicated concentration of (▪) PGE2, (♦) EP4SL, (▴) butaprost, or (●) sulprostone was incubated with three wells of a 24-well dish of CHO cells transiently transfected with cynEP4 for 1 hr on ice in the presence of 3 nM ^3H-PGE2. Following washing and solubilization of the cells, specific binding was determined by scintillation counting.
as §5
CHO cells transiently transfected with the baboon EP4 or cynomolgus macaque EP4 receptor were plated at 60,000 cells/well in 24-well tissue-culture dishes (Corning, Corning, N.Y.) and allowed to grow for 48 hours. Whole cell binding reactions (0.2 ml per well) containing 3 nM ^3H-PGE2 plus unlabeled competitor (10^−5 to 10^−10 M) were performed on ice for 1 hr. Unbound radioligand was removed by extensive washing, the cells were solubilized with 1% SDS, and the bound ^3H-PGE2 quantitated by scintillation counting.

parental CHO—K1 cells = assay: cAMP levels in parental CHO-K1 cells; type: cell-based, Chinese hamster; conditions: parental (untransfected) CHO-K1 cells

T1 sequence (Q7JGJ7 entry or part of it): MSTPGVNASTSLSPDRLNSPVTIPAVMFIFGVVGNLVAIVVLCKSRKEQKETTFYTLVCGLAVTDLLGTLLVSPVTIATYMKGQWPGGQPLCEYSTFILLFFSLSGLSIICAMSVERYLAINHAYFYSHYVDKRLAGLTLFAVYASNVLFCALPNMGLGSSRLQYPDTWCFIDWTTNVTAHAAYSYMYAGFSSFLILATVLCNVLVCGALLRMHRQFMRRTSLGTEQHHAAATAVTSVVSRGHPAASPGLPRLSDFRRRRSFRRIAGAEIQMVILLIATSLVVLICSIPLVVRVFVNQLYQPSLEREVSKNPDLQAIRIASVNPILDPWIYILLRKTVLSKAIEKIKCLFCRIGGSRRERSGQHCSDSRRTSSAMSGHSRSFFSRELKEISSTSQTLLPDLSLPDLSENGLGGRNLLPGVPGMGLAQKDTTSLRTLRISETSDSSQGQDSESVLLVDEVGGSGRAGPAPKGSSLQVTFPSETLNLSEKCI
T2 sequence (Q95J39 entry or part of it): as the sequence (Q7JGJ7 entry or part of it) above

SMILES | EC50 [1] | IC50 [2] | EC50 [3] | IC50 [4] | increased levels of cAMP, result in words (parental CHO—K1 cells) | binding to the receptor (competition with 3H-PGE2), result in words ([2]; baEP4 transfected CHO-K1 cells, competitor 10^-5 to 10^-10 M) | binding to the receptor (competition with 3H-PGE2), result in words ([4]; cynEP4 transfected CHO-K1 cells, competitor 10^-5 to 10^-10 M)
CCCCC[C@H](O)/C=C/[C@H]1[C@H](O)CC(=O)[C@@H]1C/C=C\CCCC(=O)O [PGE2, Prostaglandin E2] | 22.4 nM | 2.6 nM | 8.9 nM | 2.5 nM | not in parental CHO—K1 cells | – | –
CCCC1([C@H](O)C/C=C/[C@H]2[C@H](O)CC(=O)[C@@H]2CCCCCCC(=O)OC)CCC1 [butaprost] | – | – | – | – | – | did not bind | did not bind
O=C(O)CCCCCCN1C(=O)CCC1CCC(O)Cc1ccccc1 (stereo not drawn) [EP4SL, 7-[2-(3-hydroxy-4-phenyl-butyl)-5-oxo-pyrrolidin-1-yl]-heptanoic acid] | 872 nM | 361 nM | 560 nM | 300 nM | not in parental CHO—K1 cells | – | –
